In test [1] the target is T1, Ghrelin/GHRP/GHS Receptor (Rattus norvegicus, UniProt O08725). Description: In vivo GH release in rat after i.v. peptide (serum GH by RIA). The procedure: For the in vivo assay of GH Release in rat, immature female Sprague Dawley rats were obtained from Charles River from Wilmington, Mass. After arrival they were housed at 25° C. with a 14:10 h light:dark cycle. Water and Purina rat chow were available at libitum. Pups were weaned at 21 days of age.
Immature twenty six day old female Sprague Dawley rats, 3-6 rats per treatment dose, were pretreated with pentobarbital 20 minutes before iv injection of vehicle/peptide or peptide plus stimulator. Injection was made as a 0.1 ml solution. For the non-pentobarbital treated rat assay, peptides were administered iv into the tail vein of conscious rats. All animals were sacrificed by guillotine after iv peptide or vehicle. Trunk blood was collected at +10-15 minutes […], allowed to clot, centrifuged and serum stored until assayed for GH levels by RIA. The GH RIA reagents were distributed by the NIH. Control data was collected from rats treated with only the corresponding vehicle in the absence of peptide or stimulator. Control stimulated data was collected from rats treated with stimulator alone in the absence of any peptide.

In test [2] the target is T2, human ghrelin receptor type 1a (GHS-R1a) (Homo sapiens, UniProt Q92847).
T2 construct: expressed in transfected cells; host or cells: HEK-293 cells (membranes)
Briefly: Receptor binding, displacement of radiolabelled ghrelin, HEK-293 cell membranes. The conditions noted are these: for % INH, Ghrelin/GHS Antagonist Receptor Activity: concentration not given.

Test [3] concerns the target T1, Ghrelin/GHRP/GHS Receptor. Briefly: GH release from cell culture of pituitary cells. In kind it is cell-based. More on the design: After dispersion, the cells were collected by centrifugation, wash with DMEM and placed into culture well; endogenous in cells; host or cells: dispersed primary rat pituitary cells, 4 days in culture. The procedure:
In vitro GH Release-Female rats of the CD-1 strain were housed in a constant temperature room at 24° C. with 14 h light and 10 h darkness. The rats were fed Purina Rat chow and water at libitum. All studies were started between 0800-1000 hours. Pituitaries of mature female Sprague Dawley rats were rapidly removed after decapitation, neurointermediate lobe discarded and then placed in a pH 7.4 buffer. The pituitaries were cut into ˜3-mm pieces and then transferred to a flask containing HEPS buffer with trypsin and incubated at 37° C. Cells were triturated several times during this period. After dispersion, the cells were collected by centrifugation, wash with DMEM and placed into culture well. Cell cultures were maintained for 4 days at 37° with 8% CO2 added to the incubator atmosphere. After 4 days in culture, cells were washed with lactated Ringer's solution adjusted to pH 7.2-7.4 and then vehicle, peptide alone or peptide plus stimulator was added to media. Incubation time was 60-120 minutes after which media was removed from each well for GH determination. The GH RIA reagents were distributed by the NIH. Control data was collected from cell cultures treated with only the corresponding vehicle in the absence of peptide or stimulator. Control stimulated data was collected from cell cultures treated with stimulator alone in the absence of any peptide.

[4] abbreviates: Table 3, peptide alone 3 μg i.v.
Where [5] appears, read: Table 3, peptide alone 10 μg i.v.
[6] abbreviates: Table 3, peptide alone 30 μg i.v.
The mark [7] stands for this setting: Table 3, peptide alone 100 μg i.v.
Setting [8] is: Table 5, peptide alone 1 μg i.v.
Setting [9] is: Table 5, peptide alone 10 μg i.v.
Where [10] appears, read: Table 5, peptide alone 30 μg i.v.
Where [11] appears, read: Table 3, peptide alone 1 μg i.v.

pIC50, pKi: −log10 of the molar value. Where “and” joins values, the source holds several entries; their conditions need not be identical. Identical values can stand only once. Where a SMILES comes first, the peptide text is derived from it. Where no end group is shown, it is not given here. [ ]: non-standard residue; d: D form. d2Nal = N[C@H](Cc1ccc2ccccc2c1)C(=O)O; Orn = NCCC[C@H](N)C(=O)O; GABA = NCCCC(=O)O

T2 sequence (Q92847 whole entry): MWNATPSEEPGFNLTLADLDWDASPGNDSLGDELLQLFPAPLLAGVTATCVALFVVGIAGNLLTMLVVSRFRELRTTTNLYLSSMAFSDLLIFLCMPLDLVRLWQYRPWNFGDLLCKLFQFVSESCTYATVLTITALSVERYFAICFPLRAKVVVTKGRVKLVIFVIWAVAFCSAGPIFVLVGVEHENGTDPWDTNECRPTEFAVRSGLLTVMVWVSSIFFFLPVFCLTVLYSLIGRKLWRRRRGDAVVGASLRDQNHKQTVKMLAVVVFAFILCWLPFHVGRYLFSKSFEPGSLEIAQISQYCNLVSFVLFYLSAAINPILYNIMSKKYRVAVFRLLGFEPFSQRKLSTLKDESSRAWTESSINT
T1 sequence (O08725 whole entry): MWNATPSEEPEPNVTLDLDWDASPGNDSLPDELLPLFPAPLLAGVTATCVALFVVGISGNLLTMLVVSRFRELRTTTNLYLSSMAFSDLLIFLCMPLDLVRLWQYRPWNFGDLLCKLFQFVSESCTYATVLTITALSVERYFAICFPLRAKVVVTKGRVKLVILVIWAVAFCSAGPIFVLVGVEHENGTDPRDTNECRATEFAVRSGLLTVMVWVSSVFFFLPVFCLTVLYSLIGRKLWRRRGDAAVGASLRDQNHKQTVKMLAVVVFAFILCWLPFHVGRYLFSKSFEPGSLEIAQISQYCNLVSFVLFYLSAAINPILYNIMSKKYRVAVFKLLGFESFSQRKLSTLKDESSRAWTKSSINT

In the case of “DAla-DβNal-Ala-Ala-DAla-Lys-NH2 [6-DAla-DβNal-Ala-Ala-DAla-Lys-NH2]”, the “Unstimulated Basal GH release” value in test [1] (setting [4]) came out at 235 ± 43 ng/mL; in test [1] (setting [5]), 178 ± 33 ng/mL; in test [1] (setting [6]) it was 172 ± 15 ng/mL; in test [1] (setting [7]), 185 ± 39 ng/mL.

In the case of “αγAbu-DTrp-DTrp-Ser-NH2 [1-αγAbu-DTrp-DTrp-Ser-NH2]”, the entries for the “Unstimulated Basal GH release” value in test [1] (setting [8]), in test [1] (setting [9]) and in test [1] (setting [10]) were 80 ± 35 ng/mL, 62 ± 15 ng/mL and 67 ± 8 ng/mL, respectively.

For Glyψ[CH2NH]-DβNal-DLys-Trp-DPhe-Lys-NH2, the “Stimulated GH release” value in test [1] (peptide antagonist 1 μg i.v. + stimulator 1 μg) was determined as 2305 ± 320 ng/mL; in test [1] (peptide antagonist 3 μg i.v. + stimulator 1 μg), 1990 ± 196 ng/mL; in test [1] (peptide antagonist 10 μg i.v. + stimulator 1 μg) it was 1550 ± 284 ng/mL; in test [1] (peptide antagonist 30 μg i.v. + stimulator 1 μg) it was 946 ± 133 ng/mL; in test [1] (peptide antagonist 100 μg i.v. + stimulator 1 μg), 462 ± 122 ng/mL.

On to “DAla-DcyclohexylAla-Ala-Phe-DPhe-Nle-NH2”, for which the “Unstimulated Basal GH release” value in test [1] (setting [11]) came out at 435 ± 152 ng/mL; in test [1] (setting [4]), 195 ± 34 ng/mL; in test [1] (setting [5]), 250 ± 41 ng/mL; in test [1] (setting [6]), 393 ± 51 ng/mL; in test [1] (setting [7]) it was 697 ± 75 ng/mL.

With “αAbu-DTrp-DTrp-Orn-NH2 [4-αAbu-DTrp-DTrp-Orn-NH2]”, the “Unstimulated Basal GH release” value came to 85 ± 25 ng/mL in test [1] (setting [8]), 88 ± 18 ng/mL in test [1] (setting [9]) and 50 ± 6 ng/mL in test [1] (setting [10]).

“HW[dA][dW]FK-NH2 [11-His-Trp-DAla-DTrp-Phe-LysNH2]”: the “Unstimulated Basal GH release” value in test [1] (setting [11]) was 204 ± 44 ng/mL; in test [1] (setting [4]), 127 ± 44 ng/mL; in test [1] (setting [5]) it was 83 ± 5 ng/mL.

For `CSCC[C@H](NC(=O)CN)C(=O)N[C@@H](C)C(=O)N[C@H](C)C(=O)N[C@H](Cc1ccc2ccccc2c1)C(=O)N[C@@H](C)C(=O)N[C@@H](Cc1c[nH]c2ccccc12)C(=O)N[C@H](Cc1ccccc1)C(=O)N[C@@H](CCCCN)C(N)=O` [#5, GlyMetAlaDAlaDβNalAlaTrpDPheLysNH2] (HELM PEPTIDE1{G.M.A.[dA].[O=C([C@@H](Cc1ccc2ccccc2c1)N[*:1])[*:2]].A.W.[dF].K.[am]}$$$$V2.0; N-terminus assumed), in test [2], the pIC50 was 6.53; the pKi is 6.78; the “% INH, Ghrelin/GHS Antagonist Receptor Activity” value is 94%.

For `CSCC[C@H](NC(=O)CN)C(=O)N[C@@H](C)C(=O)N[C@H](C)C(=O)N[C@H](Cc1ccc2ccccc2c1)C(=O)N[C@H](CCCCN)C(=O)N[C@@H](Cc1c[nH]c2ccccc12)C(=O)N[C@H](Cc1ccccc1)C(=O)N[C@@H](CCCCN)C(N)=O` [#6a, GlyMetAlaDAlaDβNalDLysTrpDPheLysNH2] (HELM PEPTIDE1{G.M.A.[dA].[O=C([C@@H](Cc1ccc2ccccc2c1)N[*:1])[*:2]].[dK].W.[dF].K.[am]}$$$$V2.0; N-terminus assumed), in test [2], the pIC50 is 6.15; the pKi is 6.40; the “% INH, Ghrelin/GHS Antagonist Receptor Activity” value is given as 89%.

On to “[d2Nal]AW[dF]A-NH2 [1-DβNal-Ala-Trp-DPhe-Ala-NH2]”, for which the “Unstimulated Basal GH release” value in test [1] (setting [11]) turned out to be 623 ± 60 ng/mL; in test [1] (setting [4]), 694 ± 70 ng/mL; in test [1] (setting [5]), 654 ± 58 ng/mL; in test [1] (setting [6]) it was 713 ± 71 ng/mL.

Turning to “αγAbu-DTrp-DTrp-Orn-NH2 [3-αγAbu-DTrp-DTrp-Orn-NH2]”, the “Unstimulated Basal GH release” value in test [1] (setting [8]) is 118 ± 16 ng/mL; in test [1] (setting [9]), 126 ± 27 ng/mL; in test [1] (setting [10]), 79 ± 31 ng/mL.

Take “[d2Nal]AW[dF]L-NH2 [7-DβNal-Ala-Trp-DPhe-Leu-NH2]”: the “Unstimulated Basal GH release” value in test [1] (setting [4]) was 253 ± 79 ng/mL; in test [1] (setting [5]) it was 277 ± 43 ng/mL; in test [1] (setting [6]), 347 ± 66 ng/mL; in test [1] (setting [7]), 645 ± 117 ng/mL.

As to “[GABA][dW][dW][Orn]-NH2 [9-γAbu-DTrp-DTrp-Orn-NH2]”, the “Unstimulated Basal GH release” value stood at 82 ± 28 ng/mL in test [1] (setting [8]), 90 ± 5 ng/mL in test [1] (setting [9]) and 113 ± 32 ng/mL in test [1] (setting [10]).

For the compound “[dA][d2Nal][dA][dW]FK-NH2 [9-DAla-DβNal-DAla-DTrp-Phe-Lys-NH2]”, the figures for the “Unstimulated Basal GH release” value in test [1] (setting [11]), in test [1] (setting [4]) and in test [1] (setting [5]) were 184 ± 55 ng/mL, 467 ± 201 ng/mL and 244 ± 107 ng/mL, respectively.

For the compound “AH[dW][dK]W[dF]K-NH2 [5-Ala-His-DTrp-DLys-Trp-DPhe-Lys-NH2]”, the “Stimulated GH release” value in test [1] (peptide antagonist 30 μg i.v. + stimulator 0.3 μg) was determined as 1487 ± 397 ng/mL.

Take `CSCC[C@H](NC(=O)CN)C(=O)N[C@@H](C)C(=O)NCC(=O)N[C@@H](CO)C(=O)N[C@@H](Cc1c[nH]c2ccccc12)C(=O)N[C@@H](Cc1ccccc1)C(=O)N[C@@H](CC(C)C)C(=O)N[C@@H](CO)C(=O)N1CCC[C@H]1C(=O)N[C@@H](CCC(=O)O)C(=O)N[C@@H](Cc1c[nH]cn1)C(=O)N[C@@H](CCC(N)=O)C(=O)N[C@@H](CCCNC(=N)N)C(=O)N[C@H](C(=O)N[C@@H](CCC(N)=O)C(=O)N[C@@H](CCC(N)=O)C(=O)N[C@@H](CCCNC(=N)N)C(=O)N[C@@H](CCCCN)C(=O)N[C@@H](CCC(=O)O)C(=O)N[C@@H](CO)C(=O)N[C@@H](CCCCN)C(=O)N[C@@H](CCCCN)C(=O)N1CCC[C@H]1C(=O)N1CCC[C@H]1C(=O)N[C@@H](C)C(=O)N[C@@H](CCCCN)C(=O)N[C@@H](CC(C)C)C(=O)N[C@@H](CCC(N)=O)C(=O)N1CCC[C@H]1C(=O)N[C@@H](CCCNC(=N)N)C(=O)O)C(C)C` [#7]: in test [2], the pIC50 is 6.55; the negative logarithm of the Ki (pKi) was 6.80; the “% INH, Ghrelin/GHS Antagonist Receptor Activity” value is on record as 86%.

On to “[dA][d2Nal]AW[dF]K-NH2 [reference compound]”, for which the “Stimulated Control GH release (stimulator alone)” value in test [1] (DAla-DβNal-Ala-Trp-DPhe-Lys-NH2 0.3 μg, rat, Table 2) is 1412 ± 400 ng/mL and 2253 ± 252 ng/mL; in test [1] (DAla-DβNal-Ala-Trp-DPhe-Lys-NH2 1 μg, rat, Table 2), 3214 ± 276 ng/mL and 3105 ± 429 ng/mL and 2406 ± 288 ng/mL and 2825 ± 134 ng/mL and 3104 ± 429 ng/mL; in test [1] (Table 4, Non-Pentobarbital Rats, DAla-DβNal-Ala-Trp-DPhe-Lys-NH2 10 μg), 72 ± 9 ng/mL; in test [1] (Table 4, Pentobarbital Rats, DAla-DβNal-Ala-Trp-DPhe-Lys-NH2 0.3 μg) it was 5052 ± 511 ng/mL; in test [1] (Table 4, Pentobarbital Rats, DAla-DβNal-Ala-Trp-DPhe-Lys-NH2 1 μg) it was 4950 ± 98 ng/mL; in test [3] (Table 6, DAla-DβNal-Ala-Trp-DPhe-Lys-NH2 10 ng/ml) it was 2420 ± 0 ng/mL and 2811 ± 229 ng/mL and 2385 ± 8 ng/mL. The “Stimulated Control GH release (stimulator alone)” value in test [3] (Table 9, DAla-DβNal-Ala-Trp-DPhe-Lys-NH2 1 ng/ml) was 1232 ± 34 ng/mL; in test [3] (Table 10, DAla-DβNal-Ala-Trp-DPhe-Lys-NH2 1 ng/ml), 905 ± 6 ng/mL and 1153 ± 36 ng/mL and 1216 ± 26 ng/mL and 1461 ± 58 ng/mL and 1016 ± 18 ng/mL and 859 ± 4 ng/mL and 1060 ± 24 ng/mL; in test [3] (Table 11, DAla-DβNal-Ala-Trp-DPhe-Lys-NH2 1 ng/ml), 905 ± 6 ng/mL and 947 ± 11 ng/mL and 947 ± 33 ng/mL and 1016 ± 18 ng/mL.

Turning to “K[dH][dW]F-NH2 [8-Lys-DHis-DTrp-Phe-NH2]”, the “Unstimulated Basal GH release” value in test [1] (setting [9]) stood at 121 ± 24 ng/mL.

The pIC50 is the negative decadic logarithm of the IC50, by convention in mol/L. Broadly, the pKi is the negative decadic logarithm of the Ki, by convention in mol/L. A lower pKi goes with a large Ki.

The values above are taken from US9315546B2, “Growth hormone secretatogue receptor antagonists and uses thereof” (The Administrators of the Tulane Educational Fund, priority 2010, dated 2016).
